Test [1] addresses von Hippel-Lindau disease tumor suppressor/Bcl-2-like protein 1 (Homo sapiens, UniProt P40337+Q07817). Briefly: Protac activity at VHL/BCL-xl in human NCI-H1650 cells assessed as induction of BCL-xl degradation by Nano-Glo HiBiT assay. It is filed as cell-based.
Another test relates to EBC-1. Briefly: Growth inhibition of human EBC-1 cells assessed as cell viability incubated for 5 days by CellTiter-Glo assay. The conditions noted are these: EBC-1, 120 h, time 5 day. The test is classed as functional. (In general: Cellular ATP, detected with luciferase, serves as a proxy for viable cell number.)

Chain of von Hippel-Lindau disease tumor suppressor/Bcl-2-like protein 1 (Q07817 whole entry): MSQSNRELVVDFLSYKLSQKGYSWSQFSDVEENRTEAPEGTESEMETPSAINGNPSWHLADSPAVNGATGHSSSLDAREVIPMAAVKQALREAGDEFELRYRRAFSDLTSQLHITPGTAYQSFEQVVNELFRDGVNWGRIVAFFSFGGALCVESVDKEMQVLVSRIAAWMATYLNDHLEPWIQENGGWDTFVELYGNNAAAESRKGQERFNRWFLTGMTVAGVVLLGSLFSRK
Chain of von Hippel-Lindau disease tumor suppressor/Bcl-2-like protein 1 (P40337 whole entry): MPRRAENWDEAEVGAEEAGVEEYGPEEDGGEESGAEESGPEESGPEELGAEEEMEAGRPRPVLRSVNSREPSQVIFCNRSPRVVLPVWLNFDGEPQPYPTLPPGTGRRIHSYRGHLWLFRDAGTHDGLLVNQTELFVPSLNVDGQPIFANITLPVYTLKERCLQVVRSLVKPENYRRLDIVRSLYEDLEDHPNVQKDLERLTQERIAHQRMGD

As a reminder, the EC50 is the concentration that produces a half-maximal response. One may read the GI50 as the concentration giving 50% growth inhibition. Consider `Cc1ncsc1-c1ccc([C@H](C)NC(=O)[C@@H]2C[C@@H](O)CN2C(=O)[C@@H](NC(=O)CCCCCCCCCCCCCCCN(C)CCOC23C[C@@]4(C)C[C@@](C)(C2)C[C@@](Cn2ncc(-c5ccc(N6CCCc7c6nnc(Nc6nc8ccccc8s6)c7C)nc5C(=O)O)c2C)(C3)C4)C(C)(C)C)cc1`, for which the EC50 in test [1] amounted to 1 nM. Further, the GI50 with EBC-1 was determined as 5 nM. In the same order, the values of `Cc1ncsc1-c1ccc([C@H](C)NC(=O)[C@@H]2C[C@@H](O)CN2C(=O)[C@@H](NC(=O)CCCCCCCN(C)CCOC23C[C@@]4(C)C[C@@](C)(C2)C[C@@](Cn2ncc(-c5ccc(N6CCCc7c6nnc(Nc6nc8ccccc8s6)c7C)nc5C(=O)O)c2C)(C3)C4)C(C)(C)C)cc1` are 3 nM and 13 nM. With `Cc1ncsc1-c1ccc([C@H](C)NC(=O)[C@@H]2C[C@@H](O)CN2C(=O)[C@@H](NC(=O)CCCCCCCCCCCCCN(C)CCOC23C[C@@]4(C)C[C@@](C)(C2)C[C@@](Cn2ncc(-c5ccc(N6CCCc7c6nnc(Nc6nc8ccccc8s6)c7C)nc5C(=O)O)c2C)(C3)C4)C(C)(C)C)cc1`, in the test on EBC-1, the GI50 was found to be 1 nM.

For `Cc1ncsc1-c1ccc([C@H](C)NC(=O)[C@@H]2C[C@@H](O)CN2C(=O)[C@@H](NC(=O)CCCCCCCCN(C)CCOC23C[C@@]4(C)C[C@@](C)(C2)C[C@@](Cn2ncc(-c5ccc(N6CCCc7c6nnc(Nc6nc8ccccc8s6)c7C)nc5C(=O)O)c2C)(C3)C4)C(C)(C)C)cc1`, the EC50 in test [1] is 2 nM. For the same compound, the GI50 in the test with EBC-1 was found to be 23 nM. `Cc1ncsc1-c1ccc([C@H](C)NC(=O)[C@@H]2C[C@@H](O)CN2C(=O)[C@@H](NC(=O)CCCCCCCCCCCN(C)CCOC23C[C@@]4(C)C[C@@](C)(C2)C[C@@](Cn2ncc(-c5ccc(N6CCCc7c6nnc(Nc6nc8ccccc8s6)c7C)nc5C(=O)O)c2C)(C3)C4)C(C)(C)C)cc1`: in test [1], the EC50 turned out to be 1 nM. In addition, the GI50 in the test on EBC-1 came out at 13 nM.

Consider `Cc1ncsc1-c1ccc([C@H](C)NC(=O)[C@@H]2C[C@@H](O)CN2C(=O)[C@@H](NC(=O)CCCCCCN(C)CCOC23C[C@@]4(C)C[C@@](C)(C2)C[C@@](Cn2ncc(-c5ccc(N6CCCc7c6nnc(Nc6nc8ccccc8s6)c7C)nc5C(=O)O)c2C)(C3)C4)C(C)(C)C)cc1`, for which the EC50 in test [1] turned out to be 3 nM. In the test on EBC-1, the GI50 was 9 nM. Regarding `Cc1ncsc1-c1ccc([C@H](C)NC(=O)[C@@H]2C[C@@H](O)CN2C(=O)[C@@H](NC(=O)CCCCCCCCCCCCCCN(C)CCOC23C[C@@]4(C)C[C@@](C)(C2)C[C@@](Cn2ncc(-c5ccc(N6CCCc7c6nnc(Nc6nc8ccccc8s6)c7C)nc5C(=O)O)c2C)(C3)C4)C(C)(C)C)cc1`, the EC50 in test [1] was found to be 1 nM. In addition, the GI50 with EBC-1 was found to be 2 nM.

The values are drawn from ChEMBL document CHEMBL5316379, “Potent and Selective BCL-XL Inhibitors and PROTAC Compounds as Potential Cancer Treatment and Immunotherapy” (ACS Med Chem Lett, 2023).
